{"source": "paper PMC10177380", "about": "(Cancers, 2023)", "key": {"A431 skin": {"test_system": "A431 skin", "assay": "MTT growth inhibition, 72 h, A431", "format": "cell-based"}, "multiple cell lines": {"test_system": "multiple cell lines", "assay": "MTT growth inhibition, over all cell lines tested", "format": "cell-based", "conditions": "mean over all cell lines tested; read-out: Mean GI50 Values"}, "HT29 colon cells": {"test_system": "HT29 colon cells", "assay": "Mitochondrial membrane potential, TMRE-MtMP assay", "format": "cell-based, human", "conditions": "treatment at GI50 concentration (FCCP positive control 20 μM)", "text": "To study the MtMP changes in treated cells, a TMRE-MtMP Assay Kit (Abcam, Cambridge, MA, USA) was used (see Supplementary Materials).\nTMRE was used to stain HT29 colon cells, and treatment with the complexes and ligands was completed at each specific GI50 concentration. The MtMP changes detected are expressed as RFU. Additionally, lower RFU values correspond to a decline in mitochondrial activity. […]\ndimethylthiazol-2-yl]-2,5-diphenyltetrazolium bromide) assay and absorbance was read at 540 nm. An eight-point dose response curve was produced from which the GI50 value was calculated, representing the drug concentration at which cell growth was inhibited by 50% based on the difference between the optical density values on day 0 and those at the end of drug exposure. […]\n5. Mitochondrial Membrane Potential (MtMP)\nIn 96-well plates, 25,000 cells/mL of HT29 colon cells in DMEM were seeded. Cells were treated with a GI50 drug concentration for each complex. […]\nwashed with PBS and stained with 1 μM tetramethylrhodamine, ethyl ester (TMRE) and incubated for 30 min. TMRE was then removed, and cells were then re-washed with PBS (0.2% BSA), after which phenol red free media was added. The plates were directly scanned to measure fluorescence (expressed as RFU), using the Glo-Max®-Multimode […]\nmicroplate reader (Promega Corporation, Alexandra, VIC, Australia) at an […]\nFor the positive control, 20 μM carbonyl cyanide 4-(trifluoromethoxy) phenylhydrazone (FCCP)) was added to the cells and incubated for 10 min. The cells were washed with PBS (0.2% BSA) and stained with TMRE (1 μM) for 30 min; this was removed and phenol red free media was added, and the final solution was scanned as mentioned above. […]"}, "COX-2 (human)": {"molecular_target": "T1, COX-2 (human) (Homo sapiens, UniProt P35354)", "T1 construct": "purchased Cayman Chemical Item No. 701080", "T1 sequence (P35354 18-604)": "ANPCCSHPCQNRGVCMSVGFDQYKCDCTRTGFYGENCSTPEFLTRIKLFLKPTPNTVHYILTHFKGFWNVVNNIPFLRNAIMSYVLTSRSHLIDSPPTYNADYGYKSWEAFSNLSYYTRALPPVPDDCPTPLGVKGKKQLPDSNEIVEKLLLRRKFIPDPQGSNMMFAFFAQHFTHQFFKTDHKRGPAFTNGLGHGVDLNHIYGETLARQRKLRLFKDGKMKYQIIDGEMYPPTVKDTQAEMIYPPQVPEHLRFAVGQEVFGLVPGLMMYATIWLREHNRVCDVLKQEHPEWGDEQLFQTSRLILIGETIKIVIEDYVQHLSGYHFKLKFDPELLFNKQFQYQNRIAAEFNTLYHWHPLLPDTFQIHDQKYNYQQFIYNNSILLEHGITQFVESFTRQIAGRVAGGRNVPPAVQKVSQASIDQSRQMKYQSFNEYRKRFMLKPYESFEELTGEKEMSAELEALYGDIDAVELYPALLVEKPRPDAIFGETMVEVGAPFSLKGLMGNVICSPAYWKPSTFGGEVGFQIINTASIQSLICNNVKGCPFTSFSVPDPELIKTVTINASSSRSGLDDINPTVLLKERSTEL", "assay": "COX-2 (human) Inhibitor Screening Assay Kit (ELISA)", "format": "biochemical", "text": "NSAIDs are well recognised as inhibitors of the COX enzymes, COX-1 and COX-2 [37, 42, 45]. […] COX-1 is typically expressed in most tissues and is associated with normal physiological functions, particularly by maintaining prostaglandin production at basal levels. In contrast, COX-2 is involved in the excessive production of prostaglandin during inflammation (or hypoxia), and extensive studies have shown that COX-2 resultant prostaglandins are overexpressed in tumours. […] To explore the COX-2 inhibitory properties of the studied complexes (1–6), ELISA was used against the COX-2 enzyme. […]\n6. Cyclooxygenase-2 (COX-2) Inhibition\nThe standards, samples and assay preparation, and completion were achieved as instructed by the manufacturer. The assay necessitated three steps, being the standards preparation, the COX reaction, and the enzyme immunoassay. The standards were prepared in 2-fold serial dilution of the prostaglandin F2α enzyme-linked immunosorbent assay (ELISA) standard starting at 500 pg/mL to 3.9 pg/mL in ELISA buffer (1X). The COX reaction dilution preparation for the background samples included the addition of background COX-2 (20 μL), which was inactivated in boiling water for 3 min. The background values were generated by adding 10 μL of the inactivated COX-2, 160 μL of the reaction buffer (1X), 10 μL of heme and 10 μL of DMSO (inhibitor vehicle). The COX reaction dilution preparation for the COX-2 100% initial activity samples included the addition 160 μL of the reaction buffer (1X), 10 μL of heme, 10 μL of COX-2 and 10 μL of DMSO (inhibitor vehicle). The COX reaction dilution preparation for the COX-2 inhibitor samples included the addition of 160 μL of the reaction buffer (1X), 10 μL of heme, 10 μL […]\nThe reaction was then initiated by the addition of 10 μL of arachidonic acid and potassium hydroxide solution (1:1), and […]\nenzyme catalysis. The tubes were then vortexed and incubated for 5 min at room […]\ntemperature. The background samples were diluted with ELISA buffer (1X) 1:100 times […]\nand the COX-2 100% initial activity and COX-2 inhibitor samples were diluted 1:2000 and […]\n1:4000 times. For the enzyme immunoassay, 100 μL of the ELISA buffer (1X) was added […]\nto non-specific binding wells (NSBs), 50 μL of the ELISA buffer (1X) was added to […]\nmaximum binding wells (B0) and 50 μL of each prostaglandin F2α standard was added to […]\nstandard wells in duplicates. 50 μL of background sample and 50 μL of COX-2 100% […]\ninitial activity samples were independently added to the wells in duplicates. Inhibitor […]\nsamples (50 μL) being investigated were added to the wells in triplicates. Prostaglandin […]\nF2α acetyl-cholinesterase (AChE) tracer (50 μL) was added to all wells but the total […]\nactivity well and blank wells. Prostaglandin F2α ELISA antiserum (50 μL) was added to […]\neach well but the total activity well, NSBs and blank wells. The plate was then covered […]\nwith a plastic seal and incubated overnight at room temperature on an orbital shaker. The […]\nwells were then washed five times using kit wash buffer (1X). Ellman’s reagent (200 μL) […]\nwas then added to each well, as well as 5 μL of the AChE tracer into the total activity […]\nwell. The plate was then covered with the plastic seal, placed on an orbital shaker in the […]\ndark to develop for 2 hours at room temperature. […]\nnm using the SpectraMax M2 series multi-mode microplate reader (Molecular Devices, […]"}, "HT29 colon": {"test_system": "HT29 colon", "assay": "MTT growth inhibition, 72 h, HT29", "format": "cell-based, human"}}}
{"molecule": "COc1ccc2c(c1)c(CC(=O)OCC(=O)[O][Pt-2]13([OH])([NH2+][C@H]4CCCC[C@@H]4[NH2+]1)[n+]1cccc4c(C)c(C)c5ccc[n+]3c5c41)c(C)n2C(=O)c1ccc(Cl)cc1", "note": "[Complex 6, [Pt^IV(5,6-Me2phen)(SS-DACH)(ACE)(OH)]^2+]", "values": [{"measurement": "GI50", "setting": "A431 skin", "value": "0.016 ± 0.012", "unit": "µM"}, {"measurement": "GI50", "setting": "multiple cell lines", "value": "0.032 ± 0.007", "unit": "µM"}, {"measurement": "MtMP Changes", "setting": "HT29 colon cells; HT29, 24 h", "value": "387 ± 7", "unit": "RFU"}, {"measurement": "MtMP Changes", "setting": "HT29 colon cells; HT29, 48 h", "value": "284 ± 11", "unit": "RFU"}, {"measurement": "MtMP Changes", "setting": "HT29 colon cells; HT29, 72 h", "value": "112 ± 8", "unit": "RFU"}, {"measurement": "Percentage COX-2 Inhibitory Activity", "setting": "COX-2 (human)", "value": "32 ± 3", "unit": "%"}, {"measurement": "GI50", "setting": "HT29 colon", "value": "0.0047 ± 0.004", "unit": "µM"}]}
